Data set [1] deals with K562. As to the kind of experiment: Antiproliferative activity against imatinib resistant human K562 cells harbouring ABL-T315I mutant assessed as cell growth inhibition by XTT assay. The class given is functional. Background: Tetrazolium assays rely on reduction of a dye to a coloured formazan, in cell work by metabolically active cells.
For data set [2], the system named is K562. Description: Antiproliferative activity against imatinib resistant human K562 cells harbouring wild type ABL assessed as cell growth inhibition by XTT assay. The format is functional.
The test system of data set [3] is K562. As to the kind of experiment: Antiproliferative activity against imatinib resistant human K562 cells assessed as cell growth inhibition measured after 24 hrs by MTT assay. The format is functional, cell-based. As to conditions: K562, 24 h.
Data set [4] is described as follows: Antiproliferative activity against human KM3 cells assessed as cell growth inhibition measured after 48 hrs by MTT assay. The format is functional, cell-based. As to conditions: KM3, 48 h.
Data set [5] is described as follows: Cytotoxicity against human Hematopoietic stem cell assessed as cell growth inhibition measured after 48 hrs by MTT assay. The class given is toxicity, cell-based. The note with it: hematopoietic stem cells.
Data set [6] concerns K562. Description: Antiproliferative activity against imatinib resistant human K562 cells assessed as cell growth inhibition measured after 48 hrs by MTT assay. The class given is functional, cell-based. As to conditions: K562, 48 h.
Data set [7] can be described thus: Antiproliferative activity against human KM3 cells assessed as cell growth inhibition measured after 72 hrs by MTT assay. As to conditions: KM3, 72 h. The class given is functional, cell-based.
The nature of data set [8]: Antiproliferative activity against human KM3 cells assessed as cell growth inhibition measured after 24 hrs by MTT assay. The format is functional, cell-based. The note with it: KM3, 24 h.
In data set [9] the test system is K562. Description: Antiproliferative activity against human K562 cells assessed as cell growth inhibition measured after 48 hrs by WST assay. The class given is functional, cell-based. As to conditions: K562, 48 h.
The subject of data set [10] is K562. Description: Antiproliferative activity against human K562 cells assessed as cell growth inhibition. The format is functional, cell-based.
In data set [11] the test system is BaF3. As to the kind of experiment: cells. As to conditions: Mus musculus.
The subject of data set [12] is BaF3. Description: Antiproliferative activity against mouse BaF3 cells harbouring ABL-T315I mutant assessed as cell growth inhibition measured after 72 hrs by MTT assay. The format is functional, cell-based. As to conditions: BaF3, 72 h.
The test system of data set [13] is BaF3. As to the kind of experiment: cells. As to conditions: Mus musculus, BaF3, 72 h.
Description: Antiproliferative activity against mouse BaF3 cells harbouring wild type ABL assessed as cell growth inhibition measured after 72 hrs by MTT assay
Data set [14] addresses BCR/ABL1 (Mus musculus, UniProt P00520, E255V). As to the kind of experiment: Inhibition of BCR-ABL E255V mutant phosphorylation in mouse BaF3 cells incubated for 4 hrs by immunoblotting analysis. The class given is cell-based. In general terms: A western blot detects proteins with antibodies after separation by electrophoresis.
The nature of data set [15]: Plasma concentration in mouse at 30 mg/kg, measured after 1 hr. The format is ADME, organism-based.
The target of data set [16] is BCR/ABL1 (Mus musculus, UniProt P00520, T315I). Description: Inhibition of BCR-ABL T315I mutant phosphorylation in mouse BaF3 cells incubated for 4 hrs by immunoblotting analysis. The class given is cell-based.
Sequence of BCR/ABL1 (Mus musculus, UniProt P00520, T315I) (P00520 whole entry T315I, looked up): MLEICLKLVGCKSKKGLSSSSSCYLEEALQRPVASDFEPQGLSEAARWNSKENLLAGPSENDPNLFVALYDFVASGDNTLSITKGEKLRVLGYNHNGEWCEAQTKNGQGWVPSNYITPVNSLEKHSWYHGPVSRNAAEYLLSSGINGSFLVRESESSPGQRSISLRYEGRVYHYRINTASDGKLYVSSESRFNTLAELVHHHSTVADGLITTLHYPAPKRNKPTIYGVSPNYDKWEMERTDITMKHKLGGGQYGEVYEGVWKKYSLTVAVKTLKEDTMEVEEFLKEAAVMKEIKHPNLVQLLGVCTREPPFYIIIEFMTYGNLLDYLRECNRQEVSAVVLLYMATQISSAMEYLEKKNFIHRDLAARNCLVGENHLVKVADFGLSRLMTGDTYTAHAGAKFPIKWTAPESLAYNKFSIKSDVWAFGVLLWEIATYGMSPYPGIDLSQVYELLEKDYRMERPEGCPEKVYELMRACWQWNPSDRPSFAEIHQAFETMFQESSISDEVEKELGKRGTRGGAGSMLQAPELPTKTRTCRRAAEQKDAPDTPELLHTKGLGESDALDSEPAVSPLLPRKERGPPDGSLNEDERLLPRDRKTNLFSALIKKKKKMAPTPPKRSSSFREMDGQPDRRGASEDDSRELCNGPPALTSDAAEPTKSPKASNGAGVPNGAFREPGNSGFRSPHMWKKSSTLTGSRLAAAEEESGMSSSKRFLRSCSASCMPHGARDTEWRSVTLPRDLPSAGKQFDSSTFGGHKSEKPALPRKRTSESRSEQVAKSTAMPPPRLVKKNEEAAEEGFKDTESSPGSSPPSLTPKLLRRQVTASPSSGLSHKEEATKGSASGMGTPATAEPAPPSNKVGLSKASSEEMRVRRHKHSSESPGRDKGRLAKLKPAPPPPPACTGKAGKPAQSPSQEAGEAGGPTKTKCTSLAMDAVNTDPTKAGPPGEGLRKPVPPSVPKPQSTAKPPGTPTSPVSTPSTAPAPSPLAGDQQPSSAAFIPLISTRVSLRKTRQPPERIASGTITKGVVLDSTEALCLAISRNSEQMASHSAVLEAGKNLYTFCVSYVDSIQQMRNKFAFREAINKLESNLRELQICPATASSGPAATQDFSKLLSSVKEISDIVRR
A short description of data set [17]: Inhibition of BCR-ABL Y253H mutant phosphorylation in mouse BaF3 cells incubated for 4 hrs by immunoblotting analysis. The class given is cell-based. The note with it: BaF3, 4 h.
A short description of data set [18]: Inhibition of BCR-ABL L248R mutant phosphorylation in mouse BaF3 cells incubated for 4 hrs by immunoblotting analysis. The class given is cell-based. As to conditions: BaF3, 4 h.
The target of data set [19] is Bcr/Abl fusion protein (Homo sapiens, UniProt P00519). As to the kind of experiment: Inhibition of wild type BCR-ABL phosphorylation in mouse BaF3 cells incubated for 4 hrs by immunoblotting analysis. The class given is cell-based.
A short description of data set [20]: Ratio of drug concentration in brain to plasma of mouse at 30 mg/kg, measured after 1 hr. The class given is ADME, organism-based. The note with it: read-out: BPR.
A short description of data set [21]: Drug concentration in brain of mouse at 30 mg/kg, measured after 1 hr. The class given is ADME, organism-based. The note with it: read-out: Ct.
For data set [22], the system named is K562. As to the kind of experiment: Antiproliferative activity against imatinib resistant human K562 cells assessed as cell growth inhibition measured after 48 to 72 hrs by MTS assay. The class given is functional, cell-based.
The test system of data set [23] is K562. As to the kind of experiment: Antiproliferative activity against imatinib resistant human K562 cells expressing BCR-ABL assessed as cell growth inhibition. The format is functional, cell-based.
Data set [24] concerns the target Tyrosine-protein kinase ABL1 (Homo sapiens, UniProt P00519, T315I). As to the kind of experiment: Inhibition of Abl T315I mutant (unknown origin).
Data set [25] concerns the target T1, Aurora kinase A (Homo sapiens, UniProt O14965).
T1 sequence (O14965 whole entry): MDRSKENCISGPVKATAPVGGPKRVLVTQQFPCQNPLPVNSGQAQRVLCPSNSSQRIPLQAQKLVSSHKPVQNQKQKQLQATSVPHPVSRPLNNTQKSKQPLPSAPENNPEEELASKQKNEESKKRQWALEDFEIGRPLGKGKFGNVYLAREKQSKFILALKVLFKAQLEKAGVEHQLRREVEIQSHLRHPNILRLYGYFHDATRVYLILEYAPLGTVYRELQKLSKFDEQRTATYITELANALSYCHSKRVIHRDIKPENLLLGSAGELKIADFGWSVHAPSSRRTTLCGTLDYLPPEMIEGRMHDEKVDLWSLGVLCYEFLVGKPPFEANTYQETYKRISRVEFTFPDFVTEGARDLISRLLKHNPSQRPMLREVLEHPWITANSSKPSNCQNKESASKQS
Description: Inhibition of Aurora A (unknown origin).

In data set [26] the test system is K562. Description: Antiproliferative activity against imatinib resistant human K562 cells expressing STAT5 assessed as cell growth inhibition. The class given is functional, cell-based.
Data set [27] addresses Tyrosine-protein kinase ABL1 (Homo sapiens, UniProt P00519).
Description: Inhibition of wild type Abl (unknown origin)
Data set [28] concerns K562. As to the kind of experiment: Cytotoxicity against human K562 cells assessed as cell growth inhibition measured after 72 hrs by MTT assay. The class given is functional, cell-based. As to conditions: K562, 72 h.

≈ marks a conversion by molar mass, not a printed value.

Sequence of BCR/ABL1 (Mus musculus, UniProt P00520, E255V) (P00520 whole entry E255V, looked up): as the sequence (P00520 whole entry T315I, looked up) above, with E255V, I315T counted along it

Broadly, the GI50 is the concentration giving 50% growth inhibition. Regarding `O=C(c1ccc(/C=C/c2n[nH]c3ccccc23)cc1)N1CCNCC1` [KW-2449], the GI50 in data set [1] and in data set [2] was 0.27 µM throughout.
Broadly, the IC50 is the midpoint of a concentration-inhibition curve. As for `COc1cc2c3cc1Oc1c(OC)c(OC)cc4c1[C@@H](Cc1ccc(O)c(c1)Oc1ccc(cc1)C[C@@H]3N(C)CC2)N(C)CC4` [BERBAMINE], the IC50 turned out to be 17.1 µM in data set [3]; 5.09 µg/mL (≈ 8.36 µM) in data set [4]; 11.1 µM in data set [6]; 3.84 µg/mL (≈ 6.31 µM) in data set [7]; 8.17 µg/mL (≈ 13.4 µM) in data set [8]. For the same compound, the IC50 at 48 h in [5] is 185 µg/mL (≈ 304 µM).
In the case of `CN[C@@H](C)C(=O)N[C@H](C(=O)N1CCC[C@H]1c1nc(C(=O)c2ccc(OCCOCCOCCOCC(=O)N3CCN(c4cc(Nc5ncc(C(=O)Nc6c(C)cccc6Cl)s5)nc(C)n4)CC3)cc2)cs1)C1CCCCC1`, the IC50 in [9] came to 0.0086 µM.
On to `COC(=O)C[C@](O)(CCCC(C)(C)O)C(=O)O[C@@H]1C(OC)=C[C@]23CCCN2CCc2cc4c(cc2[C@H]13)OCO4` [OMACETAXINE MEPESUCCINATE], for which the IC50 in data set [10] was 0.0439 µg/mL (≈ 0.0804 µM).
`Cc1cc(Nc2cc(N3CCN(C)CC3)nc(Sc3ccc(NC(=O)C4CC4)cc3)n2)n[nH]1` [TOZASERTIB]: the midpoint of inhibition in data set [11], the IC50, lay at 0.1 µM.
With `O=C(Nc1c[nH]nc1-c1nc2ccc(CN3CCOCC3)cc2[nH]1)NC1CC1` [AT-9283], the IC50 in data set [12] worked out at 0.011 µM; in data set [13], 0.013 µM.
For the compound `Cc1ccc(C(=O)NNC(=O)c2c(C)cccc2Cl)cc1C#Cc1cnc2ccccc2c1` [VODOBATINIB], the IC50 in data set [14] came to 0.165 µM; in data set [16] it was 1.97 µM; in data set [17], 0.154 µM; in data set [18] it was 0.167 µM; in data set [19], 0.0009 µM. Moreover, the values for the concentration at 1 h in [15] and in data set [21] were 4800 ng/mL and 1900 ng/g, respectively. In addition, the Kp at 1 h in [20] was determined as 0.4.
Regarding `CC(C)=CCC[C@]1(C)C=Cc2c(O)c3c(c(CC=C(C)C)c2O1)O[C@]12C(=C[C@@H]4C[C@H]1C(C)(C)O[C@@]2(C/C=C(/C)C(=O)O)C4=O)C3=O` [GAMBOGIC ACID], the IC50 in [22] turned out to be 0.62 µM.
For the compound `CC(C)c1cc(CNc2nc(Nc3cc(C4CC4)[nH]n3)cc(N3CCN(C)CC3)n2)on1` [XL-228], the IC50 in [23] was 0.033 µM; in [24], 0.014 µM; in [25], 0.0031 µM; in data set [26] it was 0.043 µM; in [27], 0.005 µM.
Turning to `Cc1ccc(C(=O)Nc2ccc(CN3CCN(C)CC3)c(C(F)(F)F)c2)cc1C#Cc1nnc2ccccn12` [VAMOTINIB], in data set [28], the IC50 is 0.001 µM.
